Measured values reported in PMC9272661 (Antiviral Research, 2022).
Entries after “also recorded” stand apart in the source; their conditions may differ. Like-named read-outs stand apart in the source and are kept apart here.

How the values were obtained:
SARS-CoV-2 = assay: microbe, parasite or virus in culture; assay type: cell-based, SARS-CoV-2 (strain 2019-nCoV/USA_WA1/2020)
Cytotoxicity = assay type: cell-based
3CLpro = conditions: read-out: reported IC50; reported value, no reference given; cited from earlier work
SARS-CoV 3CLpro = SARS-CoV 3CLpro (Severe acute respiratory syndrome coronavirus, UniProt P0C6X7); assay type: biochemical
SARS-CoV = conditions: cited from earlier work
[1] = Severe acute respiratory syndrome coronavirus 2, 48 h

Structure (SMILES): O=C(NC(Cc1ccccc1)C(=O)Nc1ccc([N+](=O)[O-])cc1Cl)c1cc(Cl)ccc1O (stereo not drawn) [JMX0285]
- EC50 (SARS-CoV-2): 3030 nM

Structure (SMILES): O=C(Nc1cc(C(F)(F)F)cc(C(F)(F)F)c1)c1cccc([N+](=O)[O-])c1O [JMX0330, N-(3,5-Bis(trifluoromethyl)phenyl)-2-hydroxy-3-nitrobenzamide]
- CC50 at 48 h (Cytotoxicity): 10200 nM
- EC50 (SARS-CoV-2; [1]): 498 nM
- EC50 (SARS-CoV-2; listed as JMX0320): sub-micromolar

Structure (SMILES): CC(C)[C@H](NC(=O)c1cc(Cl)ccc1O)C(=O)Nc1ccc(F)c(F)c1 [JMX0681]
- EC50 (SARS-CoV-2): 9750 nM

Structure (SMILES): CC(C)(C)NC(=O)N[C@H](C(=O)N1C[C@H]2[C@@H]([C@H]1C(=O)NC(CC1CCC1)C(=O)C(N)=O)C2(C)C)C(C)(C)C (stereo partly drawn) [Boceprevir, boceprevir, reference compound]
- EC50 (SARS-CoV-2; Severe acute respiratory syndrome coronavirus 2, read-out: SARS-CoV-2 3CLpro EC50, Table 2, cell-based antiviral assay, SARS-CoV-2 viral replication): 15600 nM

Structure (SMILES): O=C(Nc1cc(F)cc(C(F)(F)F)c1)c1cc(Cl)ccc1O [JMX0312]
- EC50 (SARS-CoV-2): 1130 nM

Structure (SMILES): CC(C)C[C@H](NC(=O)c1cc(Cl)ccc1O)C(=O)Nc1ccc([N+](=O)[O-])cc1Cl [JMX0671]
- EC50 (SARS-CoV-2): 1560 nM

Structure (SMILES): CC(C)[C@H](NC(=O)c1cc(Cl)ccc1O)C(=O)Nc1ccc(C(F)(F)F)cc1Cl [JMX0672]
- EC50 (SARS-CoV-2): 1920 nM

Structure (SMILES): O=C(Nc1ccc(C(F)(F)F)cc1Cl)c1cccc([N+](=O)[O-])c1O [JMX0310, N-(2-Chloro-4-(trifluoromethyl)phenyl)-2-hydroxy-3-nitrobenzamide]
- CC50 at 48 h (Cytotoxicity): 10100 nM
- EC50 (SARS-CoV-2; [1]): 2410 nM

Structure (SMILES): O=C(Nc1ccc(F)c(F)c1)c1cc(Cl)ccc1O [JMX0321]
- EC50 (SARS-CoV-2): 1190 nM

Structure (SMILES): CC(C)[C@H](NC(=O)c1cc(Cl)ccc1O)C(=O)Nc1ccc([N+](=O)[O-])cc1Cl [JMX0281]
- EC50 (SARS-CoV-2): 2080 nM

Structure (SMILES): CC(C)(C)NC(=O)[C@@H](c1cccnc1)N(C(=O)c1ccco1)c1ccc(C(C)(C)C)cc1 [ML-188]
- IC50 (3CLpro): ~2000 nM

Structure (SMILES): O=C(Nc1cc(F)cc(C(F)(F)F)c1)c1cccc([N+](=O)[O-])c1O [JMX0317, N-(3-Fluoro-5-(trifluoromethyl)phenyl)-2-hydroxy-3-nitrobenzamide]
- CC50 at 48 h (Cytotoxicity): 11700 nM
- EC50 (SARS-CoV-2; [1]): 4030 nM

Structure (SMILES): CCC(C)[C@H](NC(=O)c1cc(Cl)ccc1O)C(=O)Nc1ccc([N+](=O)[O-])cc1Cl (stereo partly drawn) [JMX0673]
- EC50 (SARS-CoV-2): 1740 nM

Structure (SMILES): CC(C)[C@H](NC(=O)c1cc(Cl)ccc1O)C(=O)Nc1cc(C(F)(F)F)cc(C(F)(F)F)c1 [JMX0679]
- EC50 (SARS-CoV-2): 2510 nM

Structure (SMILES): C[C@H](NC(=O)c1cc(Cl)ccc1O)C(=O)Nc1ccc([N+](=O)[O-])cc1Cl [JMX0674]
- EC50 (SARS-CoV-2): 9750 nM

Structure (SMILES): CC(C)(C)OC(=O)NCCOc1ccc(Cl)cc1C(=O)NCC(=O)Nc1ccc([N+](=O)[O-])cc1Cl [JMX0301, Tert-Butyl (2-(4-chloro-2-((2-((2-chloro-4-nitrophenyl)amino)-2-oxoethyl)carbamoyl)phenoxy)ethyl)carbamate]
- SARS-CoV-2 3CLpro EC50 (SARS-CoV-2; Table 2, cell-based antiviral assay, SARS-CoV-2 viral replication): No Dose response

Structure (SMILES): O=C(Nc1ccc([N+](=O)[O-])cc1Cl)c1cccc([N+](=O)[O-])c1O [JMX0207]
- EC50 (SARS-CoV-2): 1220 nM

Structure (SMILES): Cl.NCCOc1ccc(Cl)cc1C(=O)NCC(=O)Nc1ccc([N+](=O)[O-])cc1Cl [JMX0286, 2-(2-Aminoethoxy)-5-chloro-N-(2-((2-chloro-4-nitrophenyl)amino)-2-oxoethyl)benzamide hydrochloride]
- CC50 at 48 h (Cytotoxicity): 3780 nM
- EC50 (SARS-CoV-2; [1]): 2250 nM

Structure (SMILES): CC(C)[C@H](NC(=O)c1cc(Cl)ccc1O)C(=O)Nc1cc(F)cc(C(F)(F)F)c1 [JMX0680]
- EC50 (SARS-CoV-2): 4570 nM

Structure (SMILES): O=C(Nc1ccc([N+](=O)[O-])cc1Cl)c1cc(Cl)ccc1O [niclosamide]
- Inhibitory activity against SARS-CoV 3CLpro (SARS-CoV 3CLpro): does not inhibit; also recorded: no obvious inhibitory activity
- Concentration suppressing the cytopathic effect (CPE) of SARS-CoV (SARS-CoV): 1 µM
- EC50 (SARS-CoV; read-out: EC50 of SARS-CoV replication): < 100 nM
